Data as given in US20060134774A1, “Detection of protease enzymes” (Marligen Biosciences, Inc., priority 2002, published 2006).

Assays:
Assay type in all cases: cell-based
caspase-3 [1] = biological target: T1, caspase-3 (Homo sapiens, UniProt P42574); experiment: Single-plex assay for active caspase-3 (bead capture of caspase-3/biotin-DEVD-FMK complex from treated cells); settings: human myeloma cell line KAS, 8 hours, 5 uM camptothecin with 1 uM biotin-DEVD-FMK, vs. culture with inhibitor only
T1 construct: endogenous in cells; host or cells: human myeloma cell line KAS
T1 sequence (P42574 29-175 limits assumed): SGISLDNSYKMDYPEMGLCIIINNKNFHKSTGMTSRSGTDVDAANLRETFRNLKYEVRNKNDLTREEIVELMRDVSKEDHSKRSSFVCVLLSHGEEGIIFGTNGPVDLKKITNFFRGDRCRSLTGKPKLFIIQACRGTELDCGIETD
T1 sequence (P42574 176-277 limits assumed): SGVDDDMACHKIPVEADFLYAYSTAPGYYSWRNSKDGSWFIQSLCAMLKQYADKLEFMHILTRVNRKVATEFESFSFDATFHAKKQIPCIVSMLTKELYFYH
Procedure: Preparation of Amine-Reactive Beads
Luminex beads were dispersed by vortexing for 15 seconds followed by sonication in a water bath for 2 minutes. To wash, beads were pelleted by centrifugation for 2 minutes at 12,000×g in a microcentrifuge and then resuspended in 100 ul of water. Beads were pelleted again, resuspended in 80 ul of activation buffer (100 mM sodium phosphate, monobasic pH 6.3), vortexed briefly and sonicated for 30 seconds. Reactive n-hydroxysuccinimide (NHS) esters on the bead surface were prepared by adding 10 ul of 50 mg/ml Sulfo-NHS solution (Pierce, Rockland, Ill.) and 10 ul of 50 mg/ml 1-Ethyl-3-[3-dimethylaminopropyl]carbodiimide Hydrochloride (EDC) to the bead suspension, briefly vortexing, and rotating for 20 minutes in the dark. […]
Human myeloma cell line KAS was cultured in RPMI+10% FBS at 37° C. in the presence of 5% CO2. […] After three washes, the cell pellet was vortexed in lysis buffer containing 50 mM Tris-HCl pH 7.5, 150 mM NaCl, 1 mM EDTA, 0.5% NP40, 0.5% Triton X-100 and protease inhibitors (5 ug/ml leupeptin, 2 ug/ml pepstatin A, 1 mM PMSF (phenyl methyl sulfonyl […]). Lysates were stored overnight at −80° C., thawed on ice, vortexed, and spun at 4° C. for 1 hour at 12,000×g in a micro-centrifuge. Protein concentrations in the cleared supernatants were determined spectrophotometrically using Bradford reagent prior to storage at −80° C. […]

caspase 9 [2] = biological target: T2, caspase 9 (Homo sapiens, UniProt P55211); experiment: Multiplex caspase assay (antibody-coated bead array), caspase 9; settings: myeloma cell line Kas, 8 hours camptothecin + biotin-DEVD-FMK vs. biotin-DEVD-FMK alone
T2 construct: endogenous in cells; host or cells: human myeloma cell line KAS
T2 sequence (P55211 1-416): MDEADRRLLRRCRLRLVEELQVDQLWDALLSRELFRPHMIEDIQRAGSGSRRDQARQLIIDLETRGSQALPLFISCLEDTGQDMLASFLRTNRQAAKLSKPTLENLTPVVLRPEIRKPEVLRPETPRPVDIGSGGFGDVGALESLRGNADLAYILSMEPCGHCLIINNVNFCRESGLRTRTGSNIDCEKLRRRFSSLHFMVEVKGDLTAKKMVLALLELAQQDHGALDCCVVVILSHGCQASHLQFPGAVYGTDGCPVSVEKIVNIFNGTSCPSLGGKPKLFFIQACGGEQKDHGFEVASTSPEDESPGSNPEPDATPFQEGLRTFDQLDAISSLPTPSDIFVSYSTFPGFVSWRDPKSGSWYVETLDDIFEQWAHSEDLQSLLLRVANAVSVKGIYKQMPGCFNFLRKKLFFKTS
Procedure: (§1) Using the method described in example 1 above Luminex bead sets (colors) 27, 29, and 31 are coupled to antibodies for caspase-3, caspase-7, and caspase 9 respectively. Immediately before using, beads are vortexed for 30 seconds and sonicated for 2 minutes to disperse. Beads are then mixed to provide a 1000 bead/ul (each color) suspension with equivalent representation of each bead set. Cell lysate was prepared from myeloma cell line Kas as describe in example 1. One culture was treated with biotinylated caspase inhibitor biotin-DEVD-FMK for 8 hours and a second culture was treated for 8 hours with the apoptosis inducer camptothecin and biotinylated caspase inhibitor, biotin-DEVD-FMK. A portion of the multiplex bead suspension (2 ul) was incubated with 50 ul of each sample of cell extract diluted to 10 ug/ml in assay buffer (50 mM Tris pH 7.5, 100 mM NaCl, 0.05% tween-20 and 0.1% BSA). Following a 1 hour incubation while shaking in the dark, beads are washed with 100 ul of assay buffer using a filterplate comprising a 1.2 micron PVDF membrane (Millipore). Beads are resuspended in 50 ul of assay buffer containing 2 ug/ml streptavidin-PE conjugate (Pierce) and shaken in the dark for an additional 30 minutes. […] The presence of labeled caspase enzymes on bead surfaces was detected using the Luminex 100 instrumentation. […]

caspase-3 [3] = biological target: T1, caspase-3; experiment: Multiplex caspase assay (antibody-coated bead array), caspase-3; settings: myeloma cell line Kas, 8 hours camptothecin + biotin-DEVD-FMK vs. biotin-DEVD-FMK alone
Procedure: as §1

caspase-7 [4] = biological target: T3, caspase-7 (Homo sapiens, UniProt P55210); experiment: Multiplex caspase assay (antibody-coated bead array), caspase-7; settings: myeloma cell line Kas, 8 hours camptothecin + biotin-DEVD-FMK vs. biotin-DEVD-FMK alone
T3 construct: endogenous in cells; host or cells: human myeloma cell line KAS
T3 sequence (P55210 24-198 limits assumed): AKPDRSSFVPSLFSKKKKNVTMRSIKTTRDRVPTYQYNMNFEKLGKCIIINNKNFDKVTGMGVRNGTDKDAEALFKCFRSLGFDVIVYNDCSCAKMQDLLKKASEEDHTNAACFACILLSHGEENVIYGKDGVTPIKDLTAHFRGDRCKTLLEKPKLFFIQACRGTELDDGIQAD
T3 sequence (P55210 207-303 limits assumed): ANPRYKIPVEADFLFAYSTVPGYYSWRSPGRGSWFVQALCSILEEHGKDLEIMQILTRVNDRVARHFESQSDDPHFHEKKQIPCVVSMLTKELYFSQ
Procedure: as §1

caspase-7 [5] = biological target: T3, caspase-7; experiment: Competitive multiplex inhibitor assay, caspase-7; settings: myeloma cell line Kas, 8 hours camptothecin + biotin-DEVD-FMK
Source text: (§2) In another aspect of the invention a labeled inhibitor and a non-labeled inhibitor are both added to the sample. The non-labeled inhibitor competes with the labeled inhibitor for binding to proteases. With this mode of the invention, new inhibitors may be screened for specificity and the binding constants of new inhibitors may be determined by determining the amount of unlabeled inhibitor necessary to reduce the binding of the labeled inhibitor by a certain amount. Using the methods described in example 2 above Luminex bead sets (colors) 27, 29, and 31 are coupled to antibodies for caspase-3, caspase-7, and caspase 9 respectively. Immediately before using, beads are vortexed for 30 seconds and sonicated for 2 minutes to disperse. Beads are then mixed to provide a 1000 bead/ul (each color) suspension with equivalent representation of each bead set. Cell lysate is prepared from the myeloma cell line Kas as described in Example 1 with the exception that an additional portion of cells is treated for 8 hours with camptothecin, the biotinylated caspase inhibitor biotin-DEVD-FMK and an equal amount of an experimental caspase inhibitor called Mx435. The MX435 inhibitor is not labeled with biotin, and therefore, it competes with the labeled inhibitor for binding to each caspase. […] The presence of labeled caspase enzymes on bead surfaces is detected using the Luminex 100 instrumentation. […]

caspase-3 [6] = biological target: T1, caspase-3; experiment: Competitive multiplex inhibitor assay, caspase-3; settings: myeloma cell line Kas, 8 hours camptothecin + biotin-DEVD-FMK
Source text: as §2

caspase 9 [7] = biological target: T2, caspase 9; experiment: Competitive multiplex inhibitor assay, caspase 9; settings: myeloma cell line Kas, 8 hours camptothecin + biotin-DEVD-FMK
Source text: as §2

CC[C@@]1(O)C(=O)OCc2c1cc1n(c2=O)Cc2cc3ccccc3nc2-1 [camptothecin]
caspase 3 activity: signal of biotin-labeled inhibitor bound to captured caspase 3 (FIG. 10) (caspase-3 [1]): induced | induction of caspase 9 activity (median fluorescent intensity, FIG. 11) (caspase 9 [2]): induced the least | induction of caspase 3 activity (median fluorescent intensity, FIG. 11) (caspase-3 [3]): induced the most | induction of caspase 7 activity (median fluorescent intensity, FIG. 11) (caspase-7 [4]): induced | induction of caspase 7 activity by camptothecin (median fluorescent intensity, FIG. 12) (caspase-7 [5]): induced | induction of caspase 3 activity by camptothecin (median fluorescent intensity, FIG. 12) (caspase-3 [6]): induced | induction of caspase 9 activity by camptothecin (median fluorescent intensity, FIG. 12) (caspase 9 [7]): induced
